Measurements reported in patent publication US20080085244A1, “Methods for identifying and using amyloid-inhibitory compounds” (Wyeth, priority 1999, published 2008).
Read-outs that look alike come from different tables or passages of the source.

Tests used:
[1] = Uterine weight in ovariectomized APP transgenic rodents; type: in vivo, transgenic mice and rats (human APP); settings: ovx APP transgenic rodents, E2 in chow 10 days, compared to untreated ovx
Description: (§1) Transgenic APP and APP/PS rodents. Transgenic animals relevant to Alzheimer's Disease have been reviewed (Seabrook and Rosahl, Neuropharmacology, 1999, 38:1-17; see, Detailed Description, supra). Both mice and rats have been made transgenic for APP, for PS1 and for both genes, and with wild-type and FAD mutant forms of the genes,. One group of these animals is ovariectomized. 17β-Estradiol (E2) is purchased from Sigma (St. Louis, Mo.). Animals are fed ad libitum in a controlled lighting environment, using a casine-based, soy-free diet, as described in Example 1. […] E2 is administered per os by powdering the hormone in the soy-free chow. All animals are weighed at the beginning prior to treatment. Average daily food intake is determined prior to treatment as well.
(§2) Tissue collection. After treatment, all animals are sacrificed by decapitation. Trunk blood is collected for determination of E2 levels. Uteri are removed and weighed to establish the presence of atrophy due to estrogen deficiency or E2-induced hypertrophy. Brains are immediately removed and the cerebellum dissected away. The brain is divided into hemispheres which are snap-frozen and stored at −80° C.

Aβ40 and Aβ42 peptides [2] = settings: physiological concentrations; rodent primary neuronal (embryonic cerebral cortex) cultures; cited from earlier work
brain Aβ = experiment: Brain Aβ levels in ovariectomized APP transgenic rodents; type: in vivo, transgenic mice and rats (human APP); settings: ovx APP transgenic rodents; approaching the levels found in intact animals
Description: Preparation of Brain Extracts.
Detection of sAPPα, flAPP, Aβ40 and Aβ42.

brain Aβ (Aβ40, Aβ42) = experiment: Brain Aβ40, Aβ42 and total Aβ levels by ELISA of DEA brain extracts of ovariectomized guinea pigs; type: in vivo, guinea pig
Description: Maintenance of animals and treatment. Ovariectomized (ovx) and intact female guinea pigs were purchased from Hilltop Laboratories (Scottsdale, Pa.); ovx animals were 8 weeks old at the time of surgery. […] Throughout the study, the animals were fed ad libitum in a controlled lighting environment (12 h/12 h light/dark cycles). After the surgery, the ovx guinea pigs were put on a casein-based, soy-free diet (Purina, Richmond, Ind.) to exclude the presence of phytosteroids in the diet. The intact animals also began receiving soy-free food at approximately 8 weeks of age. […] Prior to the beginning of the treatment, all animals were weighed. The average daily food intake for each animal using this particular diet was determined in a preliminary experiment.
Tissue collection. At the end of the treatment, all animals were sacrificed by decapitation. […] The brains were immediately removed, and the cerebellum was dissected away from each brain. The rest of the brain was divided into hemispheres which were snap-frozen and stored at −80° C.
Preparation of Brain Extracts. Soluble Proteins from the Brains were Recovered using a modification of an established protocol (Savage et al., J. Neurosci., 1998, 18:1743-52). Briefly, the hemispheres were homogenized in 0.2% diethylamine (DEA)/50 mM NaCl at 1:10 w/v ratio, with 5-6 strokes of a Dounce homogenizer. The DEA homogenate was centrifuged for 90 min at 100,000 g. The DEA supernatants were neutralized to pH about 8.0 by addition of 1/10th vol. of 0.5M Tris-Cl pH 6.8, then aliquoted and snap-frozen. The pellets of the DEA extracts were solubilized in 2% SDS/PBS containing a cocktail of protease inhibitors (“Complete”, Boehringer Mannheim, Germany), sonicated and boiled. The protein concentrations of the DEA and SDS supernatants were determined using the BCA reagent assay kit (Pierce, Rockford, Ill.).
Detection of sAPPα, flAPP, Aβ40 and Aβ42. The amino acid sequence of APP from guinea pigs is 97% identical to the human APP homologue and the Aβ region is 100% identical to human Aβ (Beck et al., Biochim. Biophys. Acta, 1997, 1351:17-21), thus enabling use of well characterized Aβ antibodies to study the effects of estrogen on APP metabolism.
The levels of Aβ40 and Aβ42 were determined by Aβ40- and Aβ42-specific ELISA assays (Mehta et al, Neurosci. Lett., 1998, 241:13-16). For each animal, the levels of Aβ40, Aβ42, and total Aβ were standardized to brain tissue weight and expressed as ng (Aβ)/g (brain tissue, wet weight). In all experiments, animals were coded prior to tissue collection, and the treatment status of each animal was unknown to the investigators at the time of the assays.
Seven ovx guinea pigs (8 weeks old at the time of ovx) were used. After ovx, the animals were fed soy-free, casein-based diet to avoid the consumption of estrogenic phytosteroids. […] After the treatment, all animals were sacrificed, and blood, uteri, and brains were collected for analysis. […] The levels of Aβ40, Aβ42, and sAPPα in brain tissue were determined using Aβ40- and Aβ42-specific ELISA assays and quantitative immunoblotting, respectively, as described in Methods.

[3] = Uterine weight (E2-induced hypertrophy) in ovariectomized guinea pigs; type: in vivo, guinea pig
Description: Maintenance of animals and treatment. Ovariectomized (ovx) and intact female guinea pigs were purchased from Hilltop Laboratories (Scottsdale, Pa.); ovx animals were 8 weeks old at the time of surgery. 17β-estradiol (E2) was purchased from Sigma (St. Louis, Mo.). Throughout the study, the animals were fed ad libitum in a controlled lighting environment (12 h/12 h light/dark cycles). After the surgery, the ovx guinea pigs were put on a casein-based, soy-free diet (Purina, Richmond, Ind.) to exclude the presence of phytosteroids in the diet. The intact animals also began receiving soy-free food at approximately 8 weeks of age. […] E2 was administered per os by powdering the hormone into the soy-free chow. Prior to the beginning of the treatment, all animals were weighed. The average daily food intake for each animal using this particular diet was determined in a preliminary experiment.
Tissue collection. At the end of the treatment, all animals were sacrificed by decapitation. Trunk blood was collected for determination of E2 levels in the serum by radioimmunoassay (Diagnostic Products Laboratory). Uteri were removed and weighed to establish E2-induced hypertrophy. The brains were immediately removed, and the cerebellum was dissected away from each brain. The rest of the brain was divided into hemispheres which were snap-frozen and stored at −80° C.
Seven ovx guinea pigs (8 weeks old at the time of ovx) were used. After ovx, the animals were fed soy-free, casein-based diet to avoid the consumption of estrogenic phytosteroids. […] E2 was administered per os by powdering the hormone into the soy-free chow. […] After the treatment, all animals were sacrificed, and blood, uteri, and brains were collected for analysis. Uterine weights and serum E2 levels were determined to document the hormonal status. The levels of Aβ40, Aβ42, and sAPPα in brain tissue were determined using Aβ40- and Aβ42-specific ELISA assays and quantitative immunoblotting, respectively, as described in Methods.
At the end of the E2 treatment, all animals were sacrificed by decapitation, and blood, uteri, and brains were isolated and subjected to analysis.

Aβ40 and Aβ42 peptides [4] = settings: physiological concentrations; human primary neuronal (embryonic cerebral cortex) cultures; cited from earlier work
[5] = Serum E2 levels in ovariectomized APP transgenic rodents; type: in vivo, transgenic mice and rats (human APP); settings: ovx APP transgenic rodents, E2 in chow 10 days, compared to untreated ovx
Description: as §1, §2

[6] = ovx + high-dose E2, 5 mg E2/kg BW/day per os, 10 days
[7] = ovx + low-dose E2, 1 mg E2/kg BW/day per os, 10 days

C[C@]12CC[C@@H]3c4ccc(O)cc4CC[C@H]3[C@@H]1CC[C@@H]2O [E2, 17β-estradiol]
uterine effect of oral E2 [1]: uterine hypertrophy
levels of Aβ40 and Aβ42 peptides released (Aβ40 and Aβ42 peptides [2]): decreased
levels of brain Aβ after E2 treatment (brain Aβ): decrease
average decrease in total Aβ levels in brain compared to ovx group (brain Aβ (Aβ40, Aβ42); first experiment, 1 mg E2/kg BW/day per os, 10 days, p=0.09): 20%
Total Aβ (median) (brain Aβ (Aβ40, Aβ42); [6]): 2.094 ngAβ/g brain tissue
Total Aβ mean +/− SEM (brain Aβ (Aβ40, Aβ42); [6]): 1.998 +/− 0.175 ngAβ/g brain tissue
Total Aβ (median) (brain Aβ (Aβ40, Aβ42); [7]): 2.063 ngAβ/g brain tissue
Total Aβ mean +/− SEM (brain Aβ (Aβ40, Aβ42); [7]): 2.023 +/− 0.134 ngAβ/g brain tissue
average decrease in ovx-associated increase in brain Aβ levels (summary statement) (brain Aβ (Aβ40, Aβ42); ovx guinea pigs, E2 for ten days beginning 8 weeks after ovx, p<0.01): 20%
average decrease for Aβ40 compared to ovx (brain Aβ (Aβ40, Aβ42); second experiment, low-dose E2 10 days, p<0.01): 18%
average decrease for Aβ42 compared to ovx (brain Aβ (Aβ40, Aβ42); second experiment, low-dose E2 10 days, p=0.033): 21%
average decrease of total brain Aβ levels compared to ovx (brain Aβ (Aβ40, Aβ42); second experiment, low-dose E2 (1 mg/kg BW/day) 10 days, p<0.01): 18%
increase in uterine weight, ovx+E2 group compared to ovx group ([3]; first experiment, 1 mg E2/kg BW/day per os, 10 days, p=0.0003): greater than 3 fold
state of uteri ([3]; high-dose E2 for 10 days, weights did not exceed the low-dose group): uterine hypertrophy
state of uteri ([3]; low-dose E2 for 10 days, weights comparable to or higher than intact group): hypertrophied
Uterine weight mean +/− SEM [3, 6]: 1.03 ± 0.08 g
Uterine weight median [3, 6]: 1.055 g
Uterine weight mean +/− SEM [3, 7]: 1.4 ± 0.18 g
Uterine weight median [3, 7]: 1.37 g
levels of Aβ40 and Aβ42 peptides released (Aβ40 and Aβ42 peptides [4]): decreased
serum E2 levels after oral E2 [5]: dramatic increase
